Measured values as given in article PMC3479967 (Evidence-based Complementary and Alternative Medicine : eCAM, 2012).
pIC50: −log10 of the molar value.

Target: T1, UGT1A10 (Homo sapiens, UniProt Q9HAW8)
T1 sequence (Q9HAW8 26-530): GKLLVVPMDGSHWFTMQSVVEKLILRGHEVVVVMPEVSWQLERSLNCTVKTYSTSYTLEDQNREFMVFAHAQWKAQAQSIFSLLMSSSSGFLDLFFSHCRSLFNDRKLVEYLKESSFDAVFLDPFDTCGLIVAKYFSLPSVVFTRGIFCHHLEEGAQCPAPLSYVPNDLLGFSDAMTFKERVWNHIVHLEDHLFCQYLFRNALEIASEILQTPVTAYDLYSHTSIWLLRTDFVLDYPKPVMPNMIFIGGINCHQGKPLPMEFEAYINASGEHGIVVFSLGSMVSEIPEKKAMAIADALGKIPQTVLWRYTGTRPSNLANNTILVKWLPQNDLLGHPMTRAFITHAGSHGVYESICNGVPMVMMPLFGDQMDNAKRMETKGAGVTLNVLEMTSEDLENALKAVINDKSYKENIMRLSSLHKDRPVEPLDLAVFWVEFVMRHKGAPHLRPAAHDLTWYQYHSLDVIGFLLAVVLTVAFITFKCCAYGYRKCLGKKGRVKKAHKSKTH
Assay: Inhibition of recombinant UGT1A10 activity (4-MU glucuronidation)
Description: A panel of recombinant human UGT supersomes (UGT1A1, UGT1A3, UGT1A4, UGT1A6, UGT1A7, UGT1A8, UGT1A9, UGT1A10, UGT2B4, UGT2B7, UGT2B15, and UGT2B17) expressed in baculovirus-infected insect cells were purchased from BD Gentest Corp. (Woburn, MA, USA).
4-MU, a nonselective substrate of UGTs, was used as probe substrate for all UGTs except UGT1A4. Incubations with each individual enzyme were conducted using conditions previously described. There was a 5 min preincubation step at 37°C before the reaction was started by addition of UDPGA. The incubation mixtures were then centrifuged at 20,500 ×g for 15 min to obtain the supernatant. Aliquots (20 μL) were then analyzed by HPLC. The HPLC system (SHIMADZU, Kyoto, Japan) consisted of an SCL-10A system controller, two LC-10AT pumps, a SIL-10A auto injector, and a SPD-10AVP UV detector. Chromatographic separation was achieved using a Kromasil ODS column (4.6 × 150 mm I.D., 5 μm particle size) at a flow rate of 1 mL/min and UV detection at 316 nm. The mobile phase consisted of 10 mM KH2PO4, pH 2.7 (A) and acetonitrile (B). The following gradient was applied at a flow rate of 1 mL/min: 0–4 min 80% A and 20% B, 4.1–8 min 50% A and 50% B, 8.1–12 min, 30% A and 70% B. All experiments were performed in two independent experiments in duplicate.
A typical incubation mixture contained recombinant human UGTs, 5 mM MgCl2, 5 mM UDPGA, 50 μg/mg protein alamethicin, 50 mM Tris-HCl buffer (pH 7.4), and various probe substrates of UGTs in the absence or presence of different concentrations of inhibitors. […] The final concentration of DMSO in the incubation system was 1% (v/v). […]
Inhibition data from experiments were graphically represented by Dixon plots. K i values were calculated by nonlinear regression using the equations for competitive inhibition (1), noncompetitive inhibition (2), or mixed inhibition (3), [22] […] The type of inhibition was determined from the enzyme inhibition models. Goodness of fit to kinetic and inhibition models was assessed from the F statistic, r ^2 values, parameter standard error estimates, and 95% confidence intervals. […]

Structure (SMILES)	pIC50
COc1ccc(-c2oc3c(CC=C(C)C)c(O[C@@H]4O[C@H](CO)[C@@H](O)[C@H](O)[C@H]4O)cc(O)c3c(=O)c2O[C@@H]2O[C@@H](C)[C@H](O)[C@@H](O)[C@H]2O)cc1 [Icariin]	< 4.00
COc1ccc(-c2oc3c(CC=C(C)C)c(O[C@@H]4O[C@H](CO)[C@@H](O)[C@H](O)[C@H]4O)cc(O)c3c(=O)c2O)cc1 [Icariside I]	< 4.00
COc1ccc(-c2oc3c(CC=C(C)C)c(O)cc(O)c3c(=O)c2O)cc1 [Icaritin]	< 4.00
